This passage reports Activity results from ChEMBL document CHEMBL1144516, “Synthesis and biological activities of analogs of D-glucosyl-l-tyrosine, a humoral factor that stimulates transcription of the acyl-CoA binding protein in the pheromone gland of the Silkmoth, Bombyx mori” (Bioorg Med Chem, 2007).

Activity calls are given as the source filed them. The calls are words filed in the database; no cut-off is given here.

The assay relates to Bombyx mori. As to the kind of experiment: Stimulation of transcription of acyl-CoA binding protein in pheromone gland of Silkmoth P50 at 0.2 mg after 18 hrs. It is filed as functional, organism-based.
For the compound `N[C@H](Cc1ccc(O[C@@H]2O[C@H](CO)[C@H](O)[C@H](O)[C@H]2O)cc1)C(=O)O`, the outcome was inactive.

On to `N[C@@H](Cc1ccc(O[C@@H]2O[C@H](CO)[C@H](O)[C@H](O)[C@H]2O)cc1)C(=O)O`, for which the outcome was Active.

Turning to `N[C@H](Cc1ccc(OC2O[C@H](CO)[C@@H](O)[C@H](O)[C@H]2O)cc1)C(=O)O` (stereo not given in full), the result was inactive.

Consider `N[C@@H](Cc1ccc(O[C@H]2O[C@@H](CO)[C@H](O)[C@@H](O)[C@@H]2O)cc1)C(=O)O`, for which the outcome was inactive.

`N[C@H](Cc1ccc(O[C@H]2O[C@@H](CO)[C@H](O)[C@@H](O)[C@@H]2O)cc1)C(=O)O`: the result was inactive.
